The target of one data set is T1, rhCRTh2 (Homo sapiens, UniProt Q9Y5Y4).
T1 construct: expressed in transfected cells; host or cells: HEK cells (membrane preparation)
T1 sequence (Q9Y5Y4 1-395): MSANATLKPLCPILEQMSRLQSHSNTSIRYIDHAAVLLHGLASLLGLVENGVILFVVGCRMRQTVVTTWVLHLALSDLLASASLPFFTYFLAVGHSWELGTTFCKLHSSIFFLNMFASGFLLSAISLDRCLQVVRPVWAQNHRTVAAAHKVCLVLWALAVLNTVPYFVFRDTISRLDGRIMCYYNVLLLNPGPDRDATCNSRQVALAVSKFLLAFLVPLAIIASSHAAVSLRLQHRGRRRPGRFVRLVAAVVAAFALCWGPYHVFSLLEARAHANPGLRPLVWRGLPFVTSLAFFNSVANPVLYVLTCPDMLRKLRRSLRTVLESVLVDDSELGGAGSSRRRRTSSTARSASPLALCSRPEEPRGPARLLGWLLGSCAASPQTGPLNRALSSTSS
The data set is described as follows: Ligand Binding Assay ([3H]PGD2 SPA, HEK cell membranes). Conditions: [3H]PGD2 displacement, HEK membranes expressing rhCRTh2/Gα16, SPA beads, 2 hours room temperature. As for the experimental part: • 1) Gassmann, Berge, T. J., Gilbert, D. P., Berkeley, W. C., JACS, 96, 5495-5508, (1974). Pharmacological Data Ligand Binding Assay
[^3H]PGD2 was purchased from Perkin Elmer Life Sciences with a specific activity of 100-210 Ci/mmol. All other chemicals were of analytical grade.
HEK cells expressing rhCRTh2/Gα16 were routinely maintained in DMEM containing 10% Foetal Bovine Serum (HyClone), 1 mg/ml geneticin, 2 mM L-glutamine and 1% non-essential amino acids. For the preparation of membranes, the adherent transfected HEK cells were grown to confluence in two layer tissue culture factories (Fisher, catalogue number TKT-170-070E). Maximal levels of receptor expression were induced by addition of […] sodium butyrate for the last 18 hours of culture. The adherent cells were washed once with phosphate buffered saline (PBS, 50 ml per cell factory) and detached by the addition of 50 ml per cell factory of ice-cold membrane homogenisation buffer [20 mM HEPES (pH 7.4), 0.1 mM dithiothreitol, 1 mM EDTA, 0.1 mM phenyl methyl sulphonyl fluoride and 100 μg/ml bacitracin]. […] The final pellet was re-suspended in 4 ml of membrane homogenisation buffer per cell factory used and the protein content determined. […]
All assays were performed in Corning clear bottomed, white 96-well NBS plates (Fisher). […] (The optimum coating concentrations were determined for each batch of membranes) The beads were pelleted by centrifugation (800×g for 7 minutes at 4° C.), washed once with assay buffer (50 mM HEPES pH 7.4 containing 5 mM magnesium chloride) and finally re-suspended in assay buffer at a bead concentration of 10 mg/ml.
Each assay contained 20 μl of 6.25 nM [^3H]PGD2, 20 μl membrane saturated SPA beads both in assay buffer and 10 μl of compound solution or 13,14-dihydro-15-keto prostaglandin D2 (DK-PGD2, for determination of non-specific binding, Cayman chemical company). […] The assay plate was incubated at room temperature for 2 hours and counted on a Wallac Microbeta liquid scintillation counter (1 minute per well).

Where a name gives a salt, the structure may show the parent alone.

In general, IC50 refers to the concentration that inhibits the measured activity by half. Read a high IC50 as weaker potency in that assay. In turn, `Cc1ccc2c(c1)c(-c1ccnc3ccccc13)c(C)n2CC(=O)O` [Example 14, 2,5-dimethyl-3-(4-quinolinyl)-1H-indole-1-acetic acid, sodium salt] had an IC50 at rhCRTh2 of 20 nM.

`Cc1c(-c2nsc3ccccc23)c2cc(F)ccc2n1CC(=O)O` [Example 36, 3-(1,2-benzisothiazol-3-yl)-5-fluoro-2-methyl-1H-indole-1-acetic acid] showed a half-inhibitory concentration (IC50) at rhCRTh2 of 7.08 nM.

As a reminder, the melting point is the temperature of the solid-liquid transition. On to `Cc1c(-c2ccnc3cc(Cl)ccc23)c2cc(NS(C)(=O)=O)ccc2n1CC(=O)O` [Example 46, 3-(7-Chloro-4-quinolinyl)-2-methyl-5-[(methylsulfonyl)amino]-1H-indole-1-acetic acid], for which the melting point was in the range of 195 to 198 °C.

Turning to `O=C(O)Cn1c(CO)c(-c2ccnc3cc(Cl)ccc23)c2cc(Cl)ccc21` [Example 55, 5-Chloro-3-(7-chloro-4-quinolinyl)-2-(hydroxymethyl)-1H-indole-1-acetic acid], the half-inhibitory concentration (IC50) on rhCRTh2 is 53.7 nM.

The record behind these values is patent publication US8093278B2, “Substituted indoles” (AstraZeneca AB, priority 2002, dated 2012).
